The values below come from patent publication US12053545B2, “Transdermal solvent system and methods of use” (Donaghys Limited, priority 2019, dated 2024).

The nature of the data set: Stability of dual anthelmintic solvent system, accelerated aging at 40° C. for 12 months. In kind it is physicochemical. Conditions: for Concentration after 6 months / Concentration after 12 months: active in solvent system of Example 4, 40° C. accelerated aging; for Initial concentration: active in solvent system of Example 4, initial.

Regarding `c1ccc([C@H]2CN3CCSC3=N2)cc1` [Levamisole], the “Concentration after 6 months” value was found to be 25450 µg/mL, the “Concentration after 12 months” value was 24100 µg/mL and the Initial concentration is 27.15 g/L.
Turning to Eprinomectin, the “Concentration after 6 months” value came out at 15800 µg/mL, the “Concentration after 12 months” value is 14600 µg/mL and the Initial concentration stood at 16.5 g/L.
